The test concerns the target T1, Serotonin 3 (5-HT3) receptor (Rattus norvegicus, UniProt P35563+Q9JJ16).
T1 sequence (P35563 whole entry): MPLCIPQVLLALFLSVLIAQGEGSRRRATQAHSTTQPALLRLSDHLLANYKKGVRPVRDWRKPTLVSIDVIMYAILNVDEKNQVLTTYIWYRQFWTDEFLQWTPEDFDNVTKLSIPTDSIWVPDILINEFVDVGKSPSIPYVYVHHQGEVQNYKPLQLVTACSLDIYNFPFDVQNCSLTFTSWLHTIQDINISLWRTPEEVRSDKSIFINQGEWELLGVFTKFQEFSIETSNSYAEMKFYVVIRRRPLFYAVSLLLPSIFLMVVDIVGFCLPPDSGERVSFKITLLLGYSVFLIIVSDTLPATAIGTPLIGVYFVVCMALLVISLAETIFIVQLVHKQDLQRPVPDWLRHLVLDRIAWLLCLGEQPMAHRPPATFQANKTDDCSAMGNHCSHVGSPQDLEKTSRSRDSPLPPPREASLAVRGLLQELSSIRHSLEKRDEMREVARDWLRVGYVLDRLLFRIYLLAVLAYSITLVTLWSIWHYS
T1 sequence (Q9JJ16 whole entry): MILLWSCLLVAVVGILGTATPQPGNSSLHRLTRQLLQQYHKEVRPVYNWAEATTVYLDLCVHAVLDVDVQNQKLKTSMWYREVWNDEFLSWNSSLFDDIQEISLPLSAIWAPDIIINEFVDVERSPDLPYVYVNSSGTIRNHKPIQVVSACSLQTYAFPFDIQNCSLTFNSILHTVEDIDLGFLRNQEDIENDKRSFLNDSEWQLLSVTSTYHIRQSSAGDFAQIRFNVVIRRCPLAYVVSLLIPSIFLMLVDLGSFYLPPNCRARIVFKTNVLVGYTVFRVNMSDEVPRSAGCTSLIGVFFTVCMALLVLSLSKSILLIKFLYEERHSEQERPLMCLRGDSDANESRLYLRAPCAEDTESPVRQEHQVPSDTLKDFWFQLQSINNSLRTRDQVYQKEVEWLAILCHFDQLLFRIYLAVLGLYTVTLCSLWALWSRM
Briefly: In vitro antagonism of the 5-HT-3 receptor determined by inhibition of 5-HT-induced depolarization of the isolated rat vagus nerve. The format is functional. The settings on record: read-out: pA2 (converted).
Turning to `COc1cc(N)ccc1C(=O)NC(=O)NC1CC2CCC(C1)N2C` (centres undefined), the Kb is 158 nM. The same measure for `CCCOc1ccccc1C(=O)NC(=O)NC1CC2CCC(C1)N2C` (centres undefined): 1.26 nM.

Turning to `CCOc1ccccc1C(=O)NC(=O)NC1CC2CCC(C1)N2C` (centres undefined), the Kb is 2.04 nM. The same measure for `O=C(NC(=O)c1ccccc1F)NC1CN2CCC1CC2` (centres undefined): more than 316 nM; for `CC(C)COc1ccccc1C(=O)NC(=O)NC1CC2CCC(C1)N2C` (centres undefined): 3.16 nM.

With `CCCCOc1ccccc1C(=O)NC(=O)NC1CC2CCC(C1)N2C` (centres undefined), the Kb is 2 nM.

Take `COc1ccccc1C(=O)NC(=O)OC1CN2CCC1CC2` (centres undefined): the Kb was 36.3 nM. For `CCCCCOc1ccccc1C(=O)NC(=O)NC1CC2CCC(C1)N2C` (centres undefined) the value was 31.6 nM; for `COc1ccccc1C(=O)NC(=O)N[C@@H]1CN2CCC1CC2`, 56.2 nM; for `Cc1ccccc1C(=O)NC(=O)NC1CN2CCC1CC2` (centres undefined), 251 nM.

As for `COc1cc(N)c(Cl)cc1C(=O)NC1CN2CCC1CC2` (centres undefined) [ZACOPRIDE], the Kb is 0.794 nM. The same measure for `CN1C2CCC1CC(NC(=O)NC(=O)c1ccccc1OCC1CC1)C2` (centres undefined): 1.26 nM; for `COc1ccc(Cl)cc1C(=O)NC(=O)NC1CC2CCC(C1)N2C` (centres undefined): 46.8 nM; for `COc1ccccc1C(=O)NC(=O)NC1CC2CCC(C1)N2C` (centres undefined) [listing 1 of 2 here]: 2.51 nM. Consider `CC(C)Oc1ccccc1C(=O)NC(=O)NC1CC2CCC(C1)N2C` (centres undefined), for which the Kb is 0.631 nM.

In the case of `COc1ccccc1C(=O)NC(=O)OC1CC2CCC(C1)N2C` (centres undefined), the Kb is 17 nM. For the molecule `COc1ccc(C(=O)NC(=O)NC2CN3CCC2CC3)cc1` (centres undefined), the Kb was more than 316 nM. Take `CN1C2CCC1CC(NC(=O)NC(=O)c1ccccc1O)C2` (centres undefined): the Kb is 12.6 nM. For `CN1CCC(OC(=O)NC(=O)c2cc(Cl)cc(Cl)c2)CC1` the value was 126 nM. For `COc1ccccc1C(=O)NC(=O)NC1CN2CCC1CC2` (centres undefined) the value was 10 nM.

Take `COc1cc(N)c(Cl)cc1C(=O)NC(=O)NC1CC2CCC(C1)N2C` (centres undefined): the Kb was 79.4 nM. Regarding `COc1cc([N+](=O)[O-])ccc1C(=O)NC(=O)NC1CC2CCC(C1)N2C` (centres undefined), the Kb was more than 100 nM. Take `COc1ccccc1C(=O)NC(=O)NC1CC2CCCC(C1)N2C` (centres undefined): the Kb is 39.8 nM. As to `COc1ccccc1C(=O)NC(=O)N[C@H]1CN2CCC1CC2`, the Kb is 7.08 nM.

Take `O=C(NC(=O)c1cc(Cl)cc(Cl)c1)NC1CN2CCC1CC2` (centres undefined): the Kb is 200 nM. The same measure for `CC(C)CCOc1ccccc1C(=O)NC(=O)NC1CC2CCC(C1)N2C` (centres undefined): 6.31 nM; for `COc1ccccc1C(=O)NC(=O)NC1CC2CCC(C1)N2C` (centres undefined) [listing 2 of 2 here]: more than 31.6 nM. `COc1cccc(OC)c1C(=O)NC(=O)NC1CN2CCC1CC2` (centres undefined): the Kb was more than 316 nM. As for `CN1[C@@H]2CC[C@H]1C[C@@H](OC(=O)c1cc(Cl)cc(Cl)c1)C2` [BEMESETRON], the Kb was 15.8 nM.
